# Columns and labels:
# Paclitaxel = compound: CC(=O)O[C@H]1C(=O)[C@@]2(C)[C@H]([C@H](OC(=O)c3ccccc3)[C@]3(O)C[C@H](OC(=O)[C@H](O)[C@@H](NC(=O)c4ccccc4)c4ccccc4)C(C)=C1C3(C)C)[C@]1(OC(C)=O)CO[C@@H]1C[C@@H]2O [Paclitaxel]
# BSJ-03-123 [1] = compound: T1, CC(=O)c1c(C)c2cnc(Nc3ccc(N4CCN(CCOCCOCCOCCNC(=O)COc5cccc6c5C(=O)N(C5CCC(=O)NC5=O)C6=O)CC4)cn3)nc2n(C2CCCC2)c1=O [BSJ-03-123]
# INK128/MLN0128 = compound: CC(C)n1nc(-c2ccc3oc(N)nc3c2)c2c(N)ncnc21 [INK128/MLN0128]
# [2] = compound: CCN1CCN(Cc2ccc(Nc3ncc(F)c(-c4cc(F)c5nc(C)n(C(C)C)c5c4)n3)nc2)CC1
# Neratinib/HKI272 [3] = compound: T2, CCOc1cc2ncc(C#N)c(Nc3ccc(OCc4ccccn4)c(Cl)c3)c2cc1NC(=O)/C=C/CN(C)C [Neratinib/HKI272]
# Volasertib/BI6727 = compound: CC[C@@H]1C(=O)N(C)c2cnc(Nc3ccc(C(=O)N[C@H]4CC[C@H](N5CCN(CC6CC6)CC5)CC4)cc3OC)nc2N1C(C)C [Volasertib/BI6727]
# LEE011/Ribociclib [4] = compound: T3, CN(C)C(=O)c1cc2cnc(Nc3ccc(N4CCNCC4)cn3)nc2n1C1CCCC1 [LEE011/Ribociclib]
# THZ531 = compound: CN(C)C/C=C/C(=O)Nc1ccc(C(=O)N2CCC[C@@H](Nc3ncc(Cl)c(-c4c[nH]c5ccccc45)n3)C2)cc1 [THZ531]
# ABT-737 = compound: CN(C)CC[C@H](CSc1ccccc1)Nc1ccc(S(=O)(=O)NC(=O)c2ccc(N3CCN(Cc4ccccc4-c4ccc(Cl)cc4)CC3)cc2)cc1[N+](=O)[O-] [ABT-737]
# [5] = compound: COc1ccc2c(c1)[C@]1(C[C@H]1c1ccc3c(/C=C/c4ccc(CN5C[C@@H](C)O[C@@H](C)C5)cc4)n[nH]c3c1)C(=O)N2
# Pictilisib/GDC0941 = compound: CS(=O)(=O)N1CCN(Cc2cc3nc(-c4cccc5[nH]ncc45)nc(N4CCOCC4)c3s2)CC1 [Pictilisib/GDC0941]
# Ceritinib/LDK378 = compound: Cc1cc(Nc2ncc(Cl)c(Nc3ccccc3S(=O)(=O)C(C)C)n2)c(OC(C)C)cc1C1CCNCC1 [Ceritinib/LDK378]
# Taselisib/GDC0032 = compound: Cc1nc(-c2cn3c(n2)-c2ccc(-c4cnn(C(C)(C)C(N)=O)c4)cc2OCC3)n(C(C)C)n1 [Taselisib/GDC0032]
# Tivantinib/ARQ197 = compound: O=C1NC(=O)[C@@H](c2cn3c4c(cccc24)CCC3)[C@@H]1c1c[nH]c2ccccc12 [Tivantinib/ARQ197]
# YKL-5-124 = compound: C=CC(=O)Nc1ccc(C(=O)Nc2[nH]nc3c2CN(C(=O)N[C@H](CN(C)C)c2ccccc2)C3(C)C)cc1 [YKL-5-124]; test: GR value, 72 h; higher = faster growth (1 = untreated, <0 = killing);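 further: breast cancer and non-malignant breast epithelial lines, nine half-log doses, viable cells counted by Hoechst and LIVE/DEAD dye imaging versus time-zero plates and DMSO controls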
# BSJ-03-123 [6] = compound: T1, BSJ-03-123; test: as above
# [7] = compound: CCN1CCN(Cc2ccc(Nc3ncc(F)c(-c4cc(F)c5nc(C)n(C(C)C)c5c4)n3)nc2)CC1; test: as above
# Neratinib/HKI272 [8] = compound: T2, Neratinib/HKI272; test: as above
# [9] = compound: CCc1cnn2c(NCc3ccc[n+]([O-])c3)cc(N3CCCC[C@H]3CCO)nc12; test: as above
# LEE011/Ribociclib [10] = compound: T3, LEE011/Ribociclib; test: as above
# 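Wherever GR50, 72 h is given: breast cancer and non-malignant breast epithelial cell lines, Deep Dye Drop or Dye Drop imaging, nine half-log doses, GR normalized to time-zero plates and DMSO-only controls.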
cell line,measurement,setting,value
EVSAT,"GR50, 72 h",Paclitaxel,0.00167 µM
same,"GR50, 72 h",BSJ-03-123 [1],3.31 µM
same,"GR50, 72 h",INK128/MLN0128,0.0112 µM
same,"GR50, 72 h",[2],1.25 µM
same,"GR50, 72 h",Neratinib/HKI272 [3],> 3.16 µM
same,"GR50, 72 h",Volasertib/BI6727,0.00932 µM
same,"GR50, 72 h",LEE011/Ribociclib [4],> 10 µM
same,"GR50, 72 h",THZ531,0.124 µM
same,"GR50, 72 h",ABT-737,> 10 µM
same,"GR50, 72 h",[5],0.00784 µM
same,"GR50, 72 h",Pictilisib/GDC0941,0.621 µM
same,"GR50, 72 h",Ceritinib/LDK378,6.18 µM
same,"GR50, 72 h",Taselisib/GDC0032,0.517 µM
same,"GR50, 72 h",Tivantinib/ARQ197,0.373 µM
same,GR value,YKL-5-124; 0.001 µM,0.327 GR
same,GR value,YKL-5-124; 0.003162 µM,0.292 GR
same,GR value,YKL-5-124; 0.01 µM,0.215 GR
same,GR value,YKL-5-124; 0.03162 µM,0.13 GR
same,GR value,YKL-5-124; 0.1 µM,0.0905 GR
same,GR value,YKL-5-124; 0.3162 µM,0.0313 GR
same,GR value,YKL-5-124; 1 µM,0.019 GR
same,GR value,YKL-5-124; 3.162 µM,-0.0275 GR
same,GR value,YKL-5-124; 10 µM,-0.412 GR
same,GR value,BSJ-03-123 [6]; 0.001 µM,0.994 GR
same,GR value,BSJ-03-123 [6]; 0.003162 µM,0.961 GR
same,GR value,BSJ-03-123 [6]; 0.01 µM,0.922 GR
same,GR value,BSJ-03-123 [6]; 0.03162 µM,0.885 GR
same,GR value,BSJ-03-123 [6]; 0.1 µM,0.851 GR
same,GR value,BSJ-03-123 [6]; 0.3162 µM,0.819 GR
same,GR value,BSJ-03-123 [6]; 1 µM,0.724 GR
same,GR value,BSJ-03-123 [6]; 3.162 µM,0.67 GR
same,GR value,BSJ-03-123 [6]; 10 µM,0.0632 GR
same,GR value,[7]; 0.001 µM,0.973 GR
same,GR value,[7]; 0.003162 µM,0.947 GR
same,GR value,[7]; 0.01 µM,0.933 GR
same,GR value,[7]; 0.03162 µM,0.853 GR
same,GR value,[7]; 0.1 µM,0.761 GR
same,GR value,[7]; 0.3162 µM,0.679 GR
same,GR value,[7]; 1 µM,0.521 GR
same,GR value,[7]; 3.162 µM,0.393 GR
same,GR value,[7]; 10 µM,-0.545 GR
same,GR value,Neratinib/HKI272 [8]; 0.0003162 µM,0.99 GR
same,GR value,Neratinib/HKI272 [8]; 0.001 µM,1.02 GR
same,GR value,Neratinib/HKI272 [8]; 0.003162 µM,1.01 GR
same,GR value,Neratinib/HKI272 [8]; 0.01 µM,0.991 GR
same,GR value,Neratinib/HKI272 [8]; 0.03162 µM,0.978 GR
same,GR value,Neratinib/HKI272 [8]; 0.1 µM,0.909 GR
same,GR value,Neratinib/HKI272 [8]; 0.3162 µM,0.895 GR
same,GR value,Neratinib/HKI272 [8]; 1 µM,0.822 GR
same,GR value,Neratinib/HKI272 [8]; 3.162 µM,0.676 GR
same,GR value,[9]; 0.0001 µM,0.951 GR
same,GR value,[9]; 0.0003162 µM,0.967 GR
same,GR value,[9]; 0.001 µM,0.959 GR
same,GR value,[9]; 0.003162 µM,0.994 GR
same,GR value,[9]; 0.01 µM,1.01 GR
same,GR value,[9]; 0.03162 µM,0.299 GR
same,GR value,LEE011/Ribociclib [10]; 0.001 µM,0.968 GR
same,GR value,LEE011/Ribociclib [10]; 0.003162 µM,0.932 GR
same,GR value,LEE011/Ribociclib [10]; 0.01 µM,0.956 GR
same,GR value,LEE011/Ribociclib [10]; 0.03162 µM,0.939 GR
same,GR value,LEE011/Ribociclib [10]; 0.1 µM,0.901 GR
same,GR value,LEE011/Ribociclib [10]; 0.3162 µM,0.821 GR
same,GR value,LEE011/Ribociclib [10]; 1 µM,0.862 GR
same,GR value,LEE011/Ribociclib [10]; 3.162 µM,0.813 GR
same,GR value,LEE011/Ribociclib [10]; 10 µM,0.616 GR
SUM1315,"GR50, 72 h",Paclitaxel,0.00246 µM
same,"GR50, 72 h",BSJ-03-123 [1],2.05 µM
same,"GR50, 72 h",INK128/MLN0128,0.00659 µM
same,"GR50, 72 h",[2],0.0493 µM
same,"GR50, 72 h",Neratinib/HKI272 [3],0.0922 µM
same,"GR50, 72 h",Volasertib/BI6727,0.0095 µM
same,"GR50, 72 h",LEE011/Ribociclib [4],2.83 µM
same,"GR50, 72 h",THZ531,0.388 µM
same,"GR50, 72 h",ABT-737,5.96 µM
same,"GR50, 72 h",[5],0.00184 µM
same,"GR50, 72 h",Pictilisib/GDC0941,0.511 µM
same,"GR50, 72 h",Ceritinib/LDK378,0.669 µM
same,"GR50, 72 h",Taselisib/GDC0032,0.516 µM
same,"GR50, 72 h",Tivantinib/ARQ197,0.37 µM
same,GR value,YKL-5-124; 0.001 µM,0.771 GR
same,GR value,YKL-5-124; 0.003162 µM,0.514 GR
same,GR value,YKL-5-124; 0.01 µM,0.439 GR
same,GR value,YKL-5-124; 0.03162 µM,0.478 GR
same,GR value,YKL-5-124; 0.1 µM,0.393 GR
same,GR value,YKL-5-124; 0.3162 µM,0.264 GR
same,GR value,YKL-5-124; 1 µM,0.133 GR
same,GR value,YKL-5-124; 3.162 µM,0.0326 GR
same,GR value,YKL-5-124; 10 µM,-0.443 GR
same,GR value,BSJ-03-123 [6]; 0.001 µM,0.883 GR
same,GR value,BSJ-03-123 [6]; 0.003162 µM,0.736 GR
same,GR value,BSJ-03-123 [6]; 0.01 µM,0.79 GR
same,GR value,BSJ-03-123 [6]; 0.03162 µM,0.651 GR
same,GR value,BSJ-03-123 [6]; 0.1 µM,0.822 GR
same,GR value,BSJ-03-123 [6]; 0.3162 µM,0.641 GR
same,GR value,BSJ-03-123 [6]; 1 µM,0.497 GR
same,GR value,BSJ-03-123 [6]; 3.162 µM,0.572 GR
same,GR value,BSJ-03-123 [6]; 10 µM,0.21 GR
same,GR value,[7]; 0.001 µM,1.08 GR
same,GR value,[7]; 0.003162 µM,0.8 GR
same,GR value,[7]; 0.01 µM,0.704 GR
same,GR value,[7]; 0.03162 µM,0.436 GR
same,GR value,[7]; 0.1 µM,0.402 GR
same,GR value,[7]; 0.3162 µM,0.259 GR
same,GR value,[7]; 1 µM,0.177 GR
same,GR value,[7]; 3.162 µM,0.109 GR
same,GR value,[7]; 10 µM,-0.164 GR
same,GR value,Neratinib/HKI272 [8]; 0.0003162 µM,1.07 GR
same,GR value,Neratinib/HKI272 [8]; 0.001 µM,0.992 GR
same,GR value,Neratinib/HKI272 [8]; 0.003162 µM,1.01 GR
same,GR value,Neratinib/HKI272 [8]; 0.01 µM,0.908 GR
same,GR value,Neratinib/HKI272 [8]; 0.03162 µM,0.69 GR
same,GR value,Neratinib/HKI272 [8]; 0.1 µM,0.517 GR
same,GR value,Neratinib/HKI272 [8]; 0.3162 µM,0.309 GR
same,GR value,Neratinib/HKI272 [8]; 1 µM,0.162 GR
same,GR value,Neratinib/HKI272 [8]; 3.162 µM,0.101 GR
same,GR value,[9]; 0.0001 µM,1.11 GR
same,GR value,[9]; 0.0003162 µM,0.993 GR
same,GR value,[9]; 0.001 µM,1.01 GR
same,GR value,[9]; 0.003162 µM,0.916 GR
same,GR value,[9]; 0.01 µM,0.617 GR
same,GR value,[9]; 0.03162 µM,-0.616 GR
same,GR value,[9]; 0.1 µM,-0.644 GR
same,GR value,[9]; 0.3162 µM,-0.639 GR
same,GR value,[9]; 1 µM,-0.664 GR
same,GR value,LEE011/Ribociclib [10]; 0.001 µM,0.841 GR
same,GR value,LEE011/Ribociclib [10]; 0.003162 µM,0.69 GR
same,GR value,LEE011/Ribociclib [10]; 0.01 µM,0.764 GR
same,GR value,LEE011/Ribociclib [10]; 0.03162 µM,0.763 GR
same,GR value,LEE011/Ribociclib [10]; 0.1 µM,0.671 GR
same,GR value,LEE011/Ribociclib [10]; 0.3162 µM,0.57 GR
same,GR value,LEE011/Ribociclib [10]; 1 µM,0.582 GR
same,GR value,LEE011/Ribociclib [10]; 3.162 µM,0.527 GR
same,GR value,LEE011/Ribociclib [10]; 10 µM,0.445 GR
